Data reported in publication PMC10712727, “Safety, Tolerability, and Pharmacokinetics of Senaparib, a Novel PARP1/2 Inhibitor, in Chinese Patients With Advanced Solid Tumors: A Phase I Trial” (The Oncologist, 2023).

System: patients with advanced solid tumors
Assay: Safety: treatment-emergent and senaparib-related adverse events graded per NCI CTCAE v4.03
Format: in vivo
Settings: for ALT increased, All / ALT increased, Gr≥3 / AST increased, All / AST increased, Gr≥3 / Abdominal distension, All / Abdominal distension, Gr≥3 / Anemia (incl. hemoglobin decreased), All / Anemia (incl. hemoglobin decreased), Gr≥3 / Appetite decreased, All / Appetite decreased, Gr≥3 / Asthenia, All / Asthenia, Gr≥3 / Blood bilirubin increased, All / Blood bilirubin increased, Gr≥3 / Blood creatinine increased, All / Blood creatinine increased, Gr≥3 / Hypokalemia, All / Hypokalemia, Gr≥3 / Hyponatremia, All / Hyponatremia, Gr≥3 / Nausea, All / Nausea, Gr≥3 / Neutrophil count decreased, All / Neutrophil count decreased, Gr≥3 / Pain in extremity, All / Pain in extremity, Gr≥3 / Platelet count decreased, All / Platelet count decreased, Gr≥3 / Protein in urine, All / Protein in urine, Gr≥3 / Vomiting, All / Vomiting, Gr≥3 / WBC decreased, All / WBC decreased, Gr≥3: TEAE
Description: This phase I, open-label, multicenter, dose-escalation, and dose-expansion study was conducted at three national clinical institutions in China. […] At baseline, all patients enrolled in the dose-escalation phase had to have at least one evaluable lesion, and those in the dose-expansion period had to have at least one measurable lesion, according to Response Evaluation Criteria in Solid Tumors version 1.1 (RECIST v1.1).[16] Entry to the dose-expansion cohort required the presence of a BRCA mutation, with the exception of patients with ovarian carcinoma, fallopian tube carcinoma, and primary peritoneal carcinoma. Full study eligibility criteria are provided in Supplementary Table S1.
Dose escalation was conducted using a modified Fibonacci 3 + 3 method (Supplementary Fig. S1).[17] Patients were administered oral senaparib from a planned starting dose of 2 mg once daily (QD), with preliminary dose escalation to 120 mg via nine dose groups, in order of their entry into the study. At a given dose level, each patient received a single dose of senaparib followed by a 7-day washout period. They then entered a continuous dosing period to confirm the safety and PK profile, in which they received senaparib QD from day 1 to day 21 of each 3-week cycle. Progression to the next higher dose required approval from the Data Safety Monitoring Committee (DSMC) upon review of the safety and PK data of the previous dose. A 50-mg twice-daily (BID) dosing group was added (planned enrollment, n = 6 patients) based on a DSMC review of the safety, PK, and efficacy analysis of the completed QD dose groups in the phase I clinical trial of senaparib dose escalation in Australia (NCT03507543), which commenced prior to the start of this trial.
The dose-expansion period included 3 populations: dose groups in which at least one patient achieved complete response (CR) or partial response (PR) per RECIST v1.1[16] and 1 dose group higher (evaluated for safety), as well as the dose group at the maximum tolerated dose (MTD)/recommended phase II dose (RP2D). Each of these groups included those patients in the respective dose-escalation group plus a planned additional 10 patients (approximately 20 patients in the MTD/RP2D group) with BRCA^mut+ solid tumors (ovarian, breast, or prostate cancer were preferred, and ovarian cancer could be BRCA wild type). Patients received senaparib monotherapy orally QD or BID (50-mg dose only) over each 3-week cycle until disease progression or unacceptable toxicity.
DLTs were predefined toxicities (Supplementary Table S2) recorded over the 7 days following the single-dose administration of senaparib and during the first treatment cycle (day 1-day 21) for each dose group in the dose-escalation period only. The MTD was defined as the maximum dose at which ≤1/6 patients experienced a DLT. Senaparib PK parameters were derived from blood samples collected from patients after the single administration, and at regular intervals during the first cycle of the dose-escalation and dose-expansion periods. Plasma concentrations of senaparib were determined using high-performance liquid chromatography-tandem mass spectrometry. Tumor response was assessed every 6 weeks per RECIST v1.1,[16] recording objective response rate (ORR), disease control rate (DCR), duration of response (DOR), and progression-free survival (PFS) by dose level for all patients and for those harboring BRCA^mut+ tumors.

O=C(c1cc(Cn2c(=O)[nH]c(=O)c3c(F)cccc32)ccc1F)N1CCN(c2ncccn2)CC1 [Senaparib]
TEAEs leading to death, patients (120 mg QD n = 4): 0 n (%)
TEAEs leading to dose discontinuation, events (120 mg QD n = 4): 2 n ev
TEAEs leading to dose discontinuation, patients (120 mg QD n = 4): 1 (25.0) n (%)
TEAEs leading to dose interruption, events (120 mg QD n = 4): 3 n ev
TEAEs leading to dose interruption, patients (120 mg QD n = 4): 2 (50.0) n (%)
TEAEs leading to dose reduction, events (120 mg QD n = 4): 0 n ev
TEAEs leading to dose reduction, patients (120 mg QD n = 4): 0 n (%)
TRAEs Grade ≥3, events (120 mg QD n = 4): 6 n ev
TRAEs Grade ≥3, patients (120 mg QD n = 4): 3 (75.0) n (%)
TRAEs, events (120 mg QD n = 4): 47 n ev
TRAEs, patients (120 mg QD n = 4): 4 (100) n (%)
Vomiting TRAE, All (120 mg QD n = 4): 1 (25.0) n (%)
Vomiting TRAE, Gr≥3 (120 mg QD n = 4): 0 n (%)
WBC decreased TRAE, All (120 mg QD n = 4): 4 (100) n (%)
WBC decreased TRAE, Gr≥3 (120 mg QD n = 4): 0 n (%)
Grade ≥3 TRAEs (2-, 10-, 40-, and 60-mg dose groups): no grade ≥3 TRAEs
Grade ≥3 TRAEs, incidence (highest) (120-mg dose group): 75.0%
ALT increased, All (2 mg QD n = 1): 0 n (%)
ALT increased, Gr≥3 (2 mg QD n = 1): 0 n (%)
AST increased, All (2 mg QD n = 1): 0 n (%)
AST increased, Gr≥3 (2 mg QD n = 1): 0 n (%)
Abdominal distension, All (2 mg QD n = 1): 0 n (%)
Abdominal distension, Gr≥3 (2 mg QD n = 1): 0 n (%)
Anemia (incl. hemoglobin decreased), All (2 mg QD n = 1): 0 n (%)
Anemia (incl. hemoglobin decreased), Gr≥3 (2 mg QD n = 1): 0 n (%)
Appetite decreased, All (2 mg QD n = 1): 1 (100) n (%)
Appetite decreased, Gr≥3 (2 mg QD n = 1): 0 n (%)
Asthenia, All (2 mg QD n = 1): 1 (100) n (%)
Asthenia, Gr≥3 (2 mg QD n = 1): 0 n (%)
Blood bilirubin increased, All (2 mg QD n = 1): 0 n (%)
Blood bilirubin increased, Gr≥3 (2 mg QD n = 1): 0 n (%)
Blood creatinine increased, All (2 mg QD n = 1): 0 n (%)
Blood creatinine increased, Gr≥3 (2 mg QD n = 1): 0 n (%)
Hypokalemia, All (2 mg QD n = 1): 1 (100) n (%)
Hypokalemia, Gr≥3 (2 mg QD n = 1): 0 n (%)
Hyponatremia, All (2 mg QD n = 1): 0 n (%)
Hyponatremia, Gr≥3 (2 mg QD n = 1): 0 n (%)
Nausea, All (2 mg QD n = 1): 0 n (%)
Nausea, Gr≥3 (2 mg QD n = 1): 0 n (%)
Neutrophil count decreased, All (2 mg QD n = 1): 0 n (%)
Neutrophil count decreased, Gr≥3 (2 mg QD n = 1): 0 n (%)
Pain in extremity, All (2 mg QD n = 1): 0 n (%)
Pain in extremity, Gr≥3 (2 mg QD n = 1): 0 n (%)
Platelet count decreased, All (2 mg QD n = 1): 0 n (%)
Platelet count decreased, Gr≥3 (2 mg QD n = 1): 0 n (%)
Protein in urine, All (2 mg QD n = 1): 0 n (%)
Protein in urine, Gr≥3 (2 mg QD n = 1): 0 n (%)
Vomiting, All (2 mg QD n = 1): 0 n (%)
Vomiting, Gr≥3 (2 mg QD n = 1): 0 n (%)
WBC decreased, All (2 mg QD n = 1): 0 n (%)
WBC decreased, Gr≥3 (2 mg QD n = 1): 0 n (%)
ALT increased, All (5 mg QD n = 3): 0 n (%)
ALT increased, Gr≥3 (5 mg QD n = 3): 0 n (%)
AST increased, All (5 mg QD n = 3): 0 n (%)
AST increased, Gr≥3 (5 mg QD n = 3): 0 n (%)
Abdominal distension, All (5 mg QD n = 3): 1 (33.3) n (%)
Abdominal distension, Gr≥3 (5 mg QD n = 3): 0 n (%)
Anemia (incl. hemoglobin decreased), All (5 mg QD n = 3): 2 (66.7) n (%)
Anemia (incl. hemoglobin decreased), Gr≥3 (5 mg QD n = 3): 1 (33.3) n (%)
Appetite decreased, All (5 mg QD n = 3): 1 (33.3) n (%)
Appetite decreased, Gr≥3 (5 mg QD n = 3): 0 n (%)
Asthenia, All (5 mg QD n = 3): 2 (66.7) n (%)
Asthenia, Gr≥3 (5 mg QD n = 3): 0 n (%)
Blood bilirubin increased, All (5 mg QD n = 3): 1 (33.3) n (%)
Blood bilirubin increased, Gr≥3 (5 mg QD n = 3): 0 n (%)
Blood creatinine increased, All (5 mg QD n = 3): 0 n (%)
Blood creatinine increased, Gr≥3 (5 mg QD n = 3): 0 n (%)
Hypokalemia, All (5 mg QD n = 3): 0 n (%)
Hypokalemia, Gr≥3 (5 mg QD n = 3): 0 n (%)
Hyponatremia, All (5 mg QD n = 3): 0 n (%)
Hyponatremia, Gr≥3 (5 mg QD n = 3): 0 n (%)
Nausea, All (5 mg QD n = 3): 1 (33.3) n (%)
Nausea, Gr≥3 (5 mg QD n = 3): 0 n (%)
Neutrophil count decreased, All (5 mg QD n = 3): 1 (33.3) n (%)
Neutrophil count decreased, Gr≥3 (5 mg QD n = 3): 0 n (%)
Pain in extremity, All (5 mg QD n = 3): 1 (33.3) n (%)
Pain in extremity, Gr≥3 (5 mg QD n = 3): 1 (33.3) n (%)
Platelet count decreased, All (5 mg QD n = 3): 2 (66.7) n (%)
Platelet count decreased, Gr≥3 (5 mg QD n = 3): 0 n (%)
Protein in urine, All (5 mg QD n = 3): 0 n (%)
Protein in urine, Gr≥3 (5 mg QD n = 3): 0 n (%)
Vomiting, All (5 mg QD n = 3): 0 n (%)
Vomiting, Gr≥3 (5 mg QD n = 3): 0 n (%)
WBC decreased, All (5 mg QD n = 3): 1 (33.3) n (%)
WBC decreased, Gr≥3 (5 mg QD n = 3): 0 n (%)
ALT increased, All (10 mg QD n = 3): 1 (33.3) n (%)
ALT increased, Gr≥3 (10 mg QD n = 3): 0 n (%)
AST increased, All (10 mg QD n = 3): 1 (33.3) n (%)
AST increased, Gr≥3 (10 mg QD n = 3): 0 n (%)
Abdominal distension, All (10 mg QD n = 3): 0 n (%)
Abdominal distension, Gr≥3 (10 mg QD n = 3): 0 n (%)
Anemia (incl. hemoglobin decreased), All (10 mg QD n = 3): 1 (33.3) n (%)
Anemia (incl. hemoglobin decreased), Gr≥3 (10 mg QD n = 3): 0 n (%)
Appetite decreased, All (10 mg QD n = 3): 1 (33.3) n (%)
Appetite decreased, Gr≥3 (10 mg QD n = 3): 0 n (%)
Asthenia, All (10 mg QD n = 3): 0 n (%)
Asthenia, Gr≥3 (10 mg QD n = 3): 0 n (%)
Blood bilirubin increased, All (10 mg QD n = 3): 0 n (%)
Blood bilirubin increased, Gr≥3 (10 mg QD n = 3): 0 n (%)
Blood creatinine increased, All (10 mg QD n = 3): 0 n (%)
Blood creatinine increased, Gr≥3 (10 mg QD n = 3): 0 n (%)
Hypokalemia, All (10 mg QD n = 3): 0 n (%)
Hypokalemia, Gr≥3 (10 mg QD n = 3): 0 n (%)
Hyponatremia, All (10 mg QD n = 3): 0 n (%)
Hyponatremia, Gr≥3 (10 mg QD n = 3): 0 n (%)
Nausea, All (10 mg QD n = 3): 0 n (%)
Nausea, Gr≥3 (10 mg QD n = 3): 0 n (%)
Neutrophil count decreased, All (10 mg QD n = 3): 0 n (%)
Neutrophil count decreased, Gr≥3 (10 mg QD n = 3): 0 n (%)
Pain in extremity, All (10 mg QD n = 3): 0 n (%)
Pain in extremity, Gr≥3 (10 mg QD n = 3): 0 n (%)
Platelet count decreased, All (10 mg QD n = 3): 0 n (%)
Platelet count decreased, Gr≥3 (10 mg QD n = 3): 0 n (%)
Protein in urine, All (10 mg QD n = 3): 1 (33.3) n (%)
Protein in urine, Gr≥3 (10 mg QD n = 3): 0 n (%)
Vomiting, All (10 mg QD n = 3): 0 n (%)
